Legend:
Format in all cases: in vivo
[1] = system: DNCB-induced atopic dermatitis in Balb/c mice; experiment: Efficacy evaluation test of DNCB-induced atopic dermatitis in Balb/c mice model (Biological Example 1); conditions: BID × 10; for Inhibitory Rate of Ear Swelling Degree / Inhibitory Rate of Ear Thickness / Ear Thickness Change, Day 1 / Ear Thickness Change, Day 10 / Weight Changes of Animals, Day 10 / Ear Thickness Change, Day 17 / Weight Changes of Animals, Day 17 / Ear Thickness Change, Day 18 / Weight Changes of Animals, Day 18 / Ear Thickness / Ear Swelling Degree / IgE Concentration / Inhibitory Rate of IgE Concentration: 1 mg/mouse on ear; for Inhibitory Rate of Ear Swelling Degree / Inhibitory Rate of Ear Thickness / Ear Thickness / Ear Swelling Degree / IgE Concentration / Inhibitory Rate of IgE Concentration: 18th day; for Inhibitory Rate of Ear Swelling Degree / Inhibitory Rate of Ear Thickness / Inhibitory Rate of IgE Concentration: vs model and blank control; for Weight Changes of Animals, Day 1 / Inhibitory Rate of Ear Thickness / Ear Thickness Change, Day 1 / Ear Thickness Change, Day 10 / Weight Changes of Animals, Day 10 / Ear Thickness Change, Day 17 / Weight Changes of Animals, Day 17 / Ear Thickness Change, Day 18 / Weight Changes of Animals, Day 18 / Ear Thickness: Balb/c mice; for Weight Changes of Animals, Day 1: 1 mg/mouse (50 mg/mL, 20 μL) on ear; for Weight Changes of Animals, Day 1 / Ear Thickness Change, Day 1 / Ear Thickness Change, Day 10 / Weight Changes of Animals, Day 10 / Ear Thickness Change, Day 17 / Weight Changes of Animals, Day 17 / Ear Thickness Change, Day 18 / Weight Changes of Animals, Day 18: Mean ± S.D.; for Ear Thickness: Table 4; for Ear Swelling Degree: right minus left ear piece weight (8 mm punch); for IgE Concentration / Inhibitory Rate of IgE Concentration: serum
Experimental: 60 healthy male SPF Balb/c mice, each of which the body weight was 19-21 g, were randomly divided into 6 groups by body weight. There were 10 mice in each group.
(§1) Before the test, the hair around the right ear of the mouse was removed to reduce the interference in the drug adhesion to the hair.
(§2) The start of the test was recorded as Day 1. The specific time for measuring ear thickness was slightly adjusted based on FIG. 1. After the end of the 18th day of the test, blood was taken from each animal to detect the concentration of immunoglobulin (IgE) in the serum (in accordance with the kit instructions). Both ears of the animal were cut off. Ear pieces were cut by an 8 mm punch at the fixed position of the ears and weighed. Differences in the swelling degrees of two ears were calculated.
(§3) The changes in mouse ear thickness and the ear weights of the same area and the IgE concentrations in the serum among different groups on the 18th day were analyzed and compared statistically with One-Way Anova in SPSS 17, respectively. The G test method was used to delete outliers. p<0.05 indicated there were statistical differences. Ear swelling degree (mg)=right ear weight (mg)−left ear weight (mg); Ear thickness change (mm)=right ear thickness (mm)−left ear thickness (mm); Inhibitory rate of ear swelling degree (%)=1−(ear swelling degree of drug administration group−ear swelling degree of blank control group)/(ear swelling degree of model control group−ear swelling degree of blank control group)×100%; Inhibitory rate of ear thickness change (%)=1−(ear thickness change of drug administration group−ear thickness change of blank control group)/(ear thickness change of model control group−ear thickness change of blank control group)×100%; Inhibitory rate of IgE (%)=1−(IgE concentration in administration group−IgE concentration in blank control group)/(IgE concentration in model control group−IgE concentration in blank control group)×100%.

[2] = system: Phorbol ester (TPA)-induced ear swelling in mice; experiment: Inhibition of phorbol ester (TPA)-induced ear swelling in mice (Biological Example 4); conditions: ICR mice, 30 mg/mL in acetone, 40 μL in 2 administrations on right ear; 5 hours after TPA modeling
Experimental: 40 male ICR mice were selected and divided into 5 groups. There were 8 mice in each group.
Before the test, the animals were grouped and the hair around the right ear of the mice was removed.
20 μL of respective drug was applied to the animals in each test group (a blank solvent was applied to the model control group). Modeling and induction were carried out after 1 h 10 min. Except for the blank group, 20 μL of TPA at a concentration of 125 μg/mL were applied to the right ears of the animals for induction. After induction for 10 minutes, 20 μL of respective drug was applied to the right ears of the animals in each test group (a blank solvent was applied to the model control group).
After modeling for 5 hours, ear pieces of both sides on the same location of animals in each group were taken with a punch and weighed to calculate the ear swelling degree, ear swelling rate and inhibitory rate.
The ear swelling degree and ear swelling rate after modeling and administration for 5 hours were analyzed and tested with One-Way ANOVA multiple-group test index in SPSS17.0. P<0.05 indicated there were statistical differences. Ear swelling degree (mg)=right ear weight (mg)−left ear weight (mg); Ear swelling rate (%)=(right ear weight−left ear weight)/left ear weight×100%; Inhibitory rate of ear swelling degree (%)=1−(ear swelling degree of drug administration group−ear swelling degree of blank control group)/(ear swelling degree of model control group−ear swelling degree of blank control group)×100%.

[3] = system: DNCB-induced atopic dermatitis in Balb/c mice; experiment: Efficacy evaluation test of DNCB-induced atopic dermatitis in Balb/c mice model (Biological Example 3); conditions: BID × 11
Experimental: 30 healthy male SPF Balb/c mice, each of which the weight was 19-21 g, were randomly divided into 3 groups by body weight. There were 10 mice in each group.
as §1
as §2, with “thickness and body weight” for “thickness”, “FIG. 3.” for “FIG. 1.”, “the Day 19” for “the 18th day”, “swelling degree” for “swelling degrees”
as §3, with “of” for “among”, “19th” for “18th”

[4] = 0.1 mg/mouse on ear, 19th day, vs model and blank control

Weight Changes of Animals, Day 1 [1] | Weight Changes of Animals, Day 10 [1] | Weight Changes of Animals, Day 17 [1] | Weight Changes of Animals, Day 18 [1] | SMILES | Inhibitory Rate of Ear Swelling Degree [1] | Inhibitory Rate of Ear Thickness [1] | Ear Thickness Change, Day 1 [1] | Ear Thickness Change, Day 10 [1] | Ear Thickness Change, Day 17 [1] | Ear Thickness Change, Day 18 [1] | Ear Thickness [1] | Ear Swelling Degree [1] | IgE Concentration [1] | Inhibitory Rate of IgE Concentration [1] | Inhibitory Rate of Ear Swelling Degree [2] | also measured
21.0 ± 0.8 g | 22.4 ± 0.8 g | 21.9 ± 1.1 g | 22.0 ± 1.3 g | CCOc1cc(C(CC(=O)OC)N2C(=O)c3cccc(NC(C)=O)c3C2=O)ccc1OC (centres unmarked) [Example 1, methyl 3-(4-acetamido-1,3-dioxoisoindolin-2-yl)-3-(3-ethoxy-4-methoxyphenyl)propionate] | 21.3% | 22.5% | 0.22 ± 0.02 mm | 0.47 ± 0.02 mm | 0.60 ± 0.08 mm | 0.64 ± 0.07 mm | 0.64 ± 0.07 mm | 19.9 ± 5.1 mg | 6631.4 ± 1431.1 ng/mL | 25.6% | 60.1% | –
– | – | – | – | CCOc1cc([C@@H](CC(=O)OC)N2C(=O)c3cccc(NC(C)=O)c3C2=O)ccc1OC [Example 9, methyl (R)-3-(4-acetamido-1,3-dioxoisoindolin-2-yl)-3-(3-ethoxy-4-methoxyphenyl)propionate] | – | – | – | – | – | – | – | – | – | – | 54.5% | –
20.6 ± 0.8 g | 22.3 ± 1.1 g | 21.8 ± 1.3 g | 22.4 ± 1.3 g | CCOc1cc([C@H](CC(=O)OC)N2C(=O)c3cccc(NC(C)=O)c3C2=O)ccc1OC [Example 10, methyl (S)-3-(4-acetamido-1,3-dioxoisoindolin-2-yl)-3-(3-ethoxy-4-methoxyphenyl)propionate] | 45.7% | 58.8% | 0.21 ± 0.01 mm | 0.35 ± 0.07 mm | 0.46 ± 0.10 mm | 0.44 ± 0.07 mm | 0.44 ± 0.07 mm | 13.7 ± 2.9 mg | 4366.7 ± 1933.9 ng/mL | 57.5% | 71.7% | Inhibitory Rate of Ear Swelling [3, 4]: 38.5%; Inhibitory Rate of Ear Thickness [3, 4]: 27.1%; Weight Changes of Animals, Day 1 ([3]; Balb/c mice, 0.1 mg/mouse (5 mg/mL, 20 μL) on ear, Day 1, Mean): 20.5 g; Ear Thickness Change, Day 1 ([3]; Balb/c mice, 0.1 mg/mouse on ear, Day 1, Mean ± S.D.): 0.26 ± 0.01 mm; Weight Changes of Animals, Day 8 ([3]; Balb/c mice, 0.1 mg/mouse on ear, Day 8, Mean): 21.8 g; Ear Thickness Change, Day 10 ([3]; Balb/c mice, 0.1 mg/mouse on ear, Day 10, Mean ± S.D.): 0.52 ± 0.11 mm; Weight Changes of Animals, Day 12 ([3]; Balb/c mice, 0.1 mg/mouse on ear, Day 12, Mean): 21.9 g; Weight Changes of Animals, Day 14 ([3]; Balb/c mice, 0.1 mg/mouse on ear, Day 14, Mean): 22.2 g; Weight Changes of Animals, Day 16 ([3]; Balb/c mice, 0.1 mg/mouse on ear, Day 16, Mean): 22.0 g; Ear Thickness Change, Day 17 ([3]; Balb/c mice, 0.1 mg/mouse on ear, Day 17, Mean ± S.D.): 0.65 ± 0.09 mm; Weight Changes of Animals, Day 19 ([3]; Balb/c mice, 0.1 mg/mouse on ear, Day 19, Mean): 22.3 g; Ear Thickness Change, Day 19 ([3]; Balb/c mice, 0.1 mg/mouse on ear, Day 19, Mean ± S.D.): 0.63 ± 0.05 mm; Ear Thickness ([3]; Table 11, 0.1 mg/mouse on ear, 19th day): 0.63 mm; Ear Swelling Degree ([3]; right minus left ear piece weight, 0.1 mg/mouse on ear, 19th day): 7.7 mg; IgE Concentration ([3]; serum, 0.1 mg/mouse on ear, 19th day): 5543.4 ng/mL; Inhibitory Rate of IgE Concentration ([3]; serum, 0.1 mg/mouse on ear, 19th day, vs model and blank control): 29.7%

From patent US11767295B2, “Isoindole derivative” (TIANJIN HEMAY PHARMACEUTICAL CO., LTD., priority 2018, dated 2023)
